Values of other authors, collected in EP4659594A1, “ORAL PRODUCTS CONTAINING MODIFIED NICOTINE-POLYMER COMPLEX” (Nicoventures Trading Limited, priority 2024, dated 2025).

Conditions: octanol/water; source of the values not stated

Row | Compound | logP
1 | CC(C)[C@@H]1CC[C@@H](C)C[C@H]1OC(=O)CCC(=O)O [monomenthyl succinate] | 3
2 | isopropyl benzoic acid | 3.5
3 | CCCCCCCS(=O)(=O)O [1-heptanesulfonic acid] | 2.0
4 | CCCCCCCCCCCC(=O)O [dodecanoic acid] | 4.6
5 | ethyl benzoic acid | 2.9
